From patent US8309580B2, “Heterocyclic compound” (Takeda Pharmaceutical Company Limited, priority 2007, dated 2012)

Molecular target: human-type glucagon receptor (Homo sapiens, UniProt P47871)
Assay: Glucagon binding inhibitory activity ([125I]-glucagon binding to glucagon receptor membrane protein)
Settings: glucagon receptor membrane protein from FreeStyle CHO cells, 90 min at room temperature
Experimental: The glucagon binding inhibitory action of the compound of the present invention was evaluated by the following method.
(1) Preparation of Glucagon Receptor Membrane Protein
A human-type glucagon receptor was expressed using FreeStyle CHO Expression System (Invitrogen). A transient expression in FreeStyle CHO cell was performed using a human-type glucagon expression plasmid DNA and according to the manual attached to the FreeStyle CHO Expression System. The above-mentioned DNA was transfected and the cultured with shaking for 2 days (37° C., 8% CO2, 125 rpm). 2400 ml of culture medium was centrifuged at 2,000 rpm for 10 min and the cells were collected. The collected cells were washed with PBS, suspended in homogenate buffer [10 mM NaHCO3 (pH 7.4), 1 mM EDTA, Complete EDTA-free (Roche, 1 tablet/50 mL)] and disrupted by polytron cell disrupter (Kinematica AG). Disruption solution was centrifuged at 2,000 rpm for 10 min and the supernatant was collected. The supernatant was centrifuged at 35,000 rpm for 60 min and the precipitate was suspended in a buffer [20 mM Tris-HCl (pH 7.4), 5 mM EDTA, Complete EDTA-free (Roche, 1 tablet/50 mL)] to give a glucagon receptor membrane protein (452 mg).
(2) Measurement of Glucagon Binding Inhibitory Activity
To each well of 96 well plate (Corning Incorporated) were added 25 μl of test compound (containing 0.4% DMSO), 50 μl of glucagon receptor membrane protein diluted with reaction buffer [50 mM Tris-HCl (pH 7.4), 5 mM EGTA, 5 mM magnesium chloride, 0.1% BSA, 0.005% Tween20] to 100 μg/ml, and 25 μl of radioactive labeled glucagon ([^125I]-Receptor Grade Glucagon; Perkin Elmer Inc.) diluted with the reaction buffer to 200 pM, whereby the reaction was started. The plate was stood for 90 min at room temperature. The reaction solution was transferred from the reaction plate to a 96 well unifilter GF/C plate (Perkin Elmer Inc.) using a cell harvester (Perkin Elmer Inc.) and the membrane fraction was collected on the filter by suction. The filter was presoaked in 2 mg/ml of polyethyleneimine to prevent non-specific adsorption of labeled ligand. The filter was washed 4 times with a reaction buffer and dried for 2 hr at 42° C. To each well was added 25 μl of scintillator (MicroScint0; Perkin Elmer Inc.), and the fluorescence amount was measured using a microplate scintillation counter (TopCount NXT™; Perkin Elmer Inc.). The glucagon binding inhibitory activity (IC50 value) of the well added with the test compound (containing 0.4% DMSO) was calculated, using the reaction rate of the well added only with 0.4% DMSO as 0% inhibitory rate, and the reaction rate of the well added with non-labeled glucagon (final concentration 1 μM) as 100% inhibitory rate.

Chain of human-type glucagon receptor (P47871 26-477): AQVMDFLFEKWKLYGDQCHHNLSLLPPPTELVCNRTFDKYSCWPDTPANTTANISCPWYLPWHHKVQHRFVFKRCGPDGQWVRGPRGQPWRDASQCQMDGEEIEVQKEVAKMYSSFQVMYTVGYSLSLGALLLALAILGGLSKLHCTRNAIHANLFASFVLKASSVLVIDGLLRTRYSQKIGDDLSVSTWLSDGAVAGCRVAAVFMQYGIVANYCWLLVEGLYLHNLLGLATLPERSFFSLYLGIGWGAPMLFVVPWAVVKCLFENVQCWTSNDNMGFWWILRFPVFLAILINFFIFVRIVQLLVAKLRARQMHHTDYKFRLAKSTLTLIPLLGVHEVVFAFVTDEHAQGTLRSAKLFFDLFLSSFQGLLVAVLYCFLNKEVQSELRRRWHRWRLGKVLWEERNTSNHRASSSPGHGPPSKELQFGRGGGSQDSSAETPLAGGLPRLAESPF

Compound | IC50 [nM]
COc1ccc(-c2cc(C(Nc3ccc(C(=O)N(C)CCC(=O)O)cc3)C3CCCCC3)c(C)o2)cn1 (single isomer, unassigned) [Ex. 166, 3-[{[4-({cyclohexyl[5-(6-methoxypyridin-3-yl)-2-methylfuran-3-yl]methyl}amino)phenyl]carbonyl}(methyl)amino]propanoic acid] | 180
COc1ccc(-c2cc(C(CC(C)C)Nc3ccc(C(=O)N(C)CCC(=O)O)cc3)c(C)o2)cn1 (single isomer, unassigned) [Ex. 319, 3-[{[4-({1-[5-(6-methoxypyridin-3-yl)-2-methylfuran-3-yl]-3-methylbutyl}amino)phenyl]carbonyl}(methyl)amino]propanoic acid] | 230
Cc1sc(-c2ccccc2)cc1C(Nc1ccc(C(=O)N(C)CCC(=O)O)nc1)C1CCCCC1 (centres unmarked) [Ex. 311, 3-{[(5-{[cyclohexyl(2-methyl-5-phenylthiophen-3-yl)methyl]amino}pyridin-2-yl)carbonyl](methyl)amino}propanoic acid] | 650
CCc1sc(CC(C)C)cc1C(Nc1ccc(C(=O)NCCC(=O)O)cc1)C1CCCCC1 (centres unmarked) [Ex. 83, 3-({[4-({cyclohexyl[2-ethyl-5-(2-methylpropyl)thiophen-3-yl]methyl}amino)phenyl]carbonyl}amino)propanoic acid] | 190
CCc1oc(-c2ccc(C(F)(F)F)cc2)cc1C(CC(C)C)Oc1ccc(C(=O)NCCC(=O)O)cc1 (centres unmarked) [Ex. 5, 3-{[4-(1-{2-ethyl-5-[4-(trifluoromethyl)phenyl]-3-furyl}-3-methylbutoxy)benzoyl]amino}propanoic acid] | 630
CCc1oc(-c2ccc(C(F)(F)F)cc2)cc1C(Nc1ccc(C(=O)N(C)CCC(=O)O)cc1)C1CCCCC1 (centres unmarked) [Ex. 10, 3-[{4-[(cyclohexyl{2-ethyl-5-[4-(trifluoromethyl)phenyl]-3-furyl}methyl)amino]benzoyl}(methyl)amino]propanoic acid] | 250
COCc1oc(-c2ccc(F)cc2)cc1C(Nc1ccc(C(=O)N(C)CCC(=O)O)cc1)C1CCCCC1 (centres unmarked) [Ex. 314, 3-[{[4-({cyclohexyl[5-(4-fluorophenyl)-2-(methoxymethyl)furan-3-yl]methyl}amino)phenyl]carbonyl}(methyl)amino]propanoic acid] | 290
Cc1oc(-c2ccc(OC(F)(F)F)cc2)cc1C(Nc1ccc(C(=O)NCCC(=O)O)cc1)C1CCCCC1 (centres unmarked) [Ex. 53, 3-({4-[(cyclohexyl{2-methyl-5-[4-(trifluoromethoxy)phenyl]-3-furyl}methyl)amino]benzoyl}amino)propanoic acid] | 110
Cc1oc(-c2ccc(F)cc2)cc1C(Nc1ccc(C(=O)N(C)CCC(=O)O)nc1)C1CCCCC1 (centres unmarked) [Ex. 318, 3-[{[5-({cyclohexyl[5-(4-fluorophenyl)-2-methylfuran-3-yl]methyl}amino)pyridin-2-yl]carbonyl}(methyl)amino]propanoic acid] | 400
CCc1sc(C2CCCCC2)cc1C(Nc1ccc(C(=O)NCCC(=O)O)cc1)C1CCCCC1 (centres unmarked) [Ex. 79, 3-{[(4-{[cyclohexyl(5-cyclohexyl-2-ethylthiophen-3-yl)methyl]amino}phenyl)carbonyl]amino}propanoic acid] | 97
CCc1sc(-c2ccc(C(F)(F)F)cc2)cc1C(Nc1ccc(C(=O)NCCC(=O)O)cc1)C1CCCCC1 (centres unmarked) [Ex. 71, 3-[({4-[(cyclohexyl{2-ethyl-5-[4-(trifluoromethyl)phenyl]thiophen-3-yl}methyl)amino]phenyl}carbonyl)amino]propanoic acid] | 57

System: glucagon-induced blood glucose increase
Assay: Test of glucagon-induced blood glucose increase-suppressive action in mouse
Type: in vivo
Settings: male ICR mouse, fasted; test compound 10 mg/kg orally 60 min before s.c. glucagon 10 μg/kg with octreotide; blood glucose 30 min after glucagon
Experimental: Test of Glucagon-Induced Blood Glucose Increase-Suppressive Action in Mouse
Full feeding ICR mouse (male, 7-week-old) was fasted, and 0.5% methylcellulose suspension (compound-administration group, 8 mice per group) containing a test compound (10 mg/kg body weight) or 0.5% methylcellulose suspension (compound-non-administration group, 8 mice per group) was orally administered. After 60 minutes, glucagon (10 μg/kg body weight, Novo Nordisk Pharma Ltd.) containing octreotide (100 μg/kg body weight, Novo Nordisk Pharma Ltd.) was subcutaneously administered. After 30 minutes from the glucagon administration, blood samples were collected from the tail vein of the mouse, and the blood glucose level was measured by a glucose self-test kit ACCU-CHEK (Roche Diagnostics K.K.). As a non-treatment group (8 mice per group), the blood glucose level of mouse of the compound-non-administration group, which was free of glucagon administration, was measured in the same manner as in the above.
The differences between the average blood glucose level of the compound-non-administration group, the average blood glucose level of the compound administration group, and the average blood glucose level of the non-treatment group were each calculated, and the percentage of the “difference between the blood glucose level of the compound administration group and that of the non-treatment group” relative to the “difference between the blood glucose level of the compound-non-administration group and that of the non-treatment group” as 100% was determined as an “increasing rate of blood glucose (% of control)”.

Compound | increasing rate of blood glucose (% of control)
CCc1oc(-c2ccc(C(F)(F)F)cc2)cc1C(Nc1ccc(C(=O)N(C)CCC(=O)O)cc1)C1CCCCC1 (centres unmarked) [Ex. 87, 3-[({4-[(cyclohexyl{2-ethyl-5-[4-(trifluoromethyl)phenyl]furan-3-yl}methyl)amino]phenyl}carbonyl)(methyl)amino]propanoic acid] | 6.5 % of control
COCc1oc(-c2ccc(OC)nc2)cc1C(Nc1ccc(C(=O)N(C)CCC(=O)O)cc1)C1CCCCC1 (centres unmarked) [Example 147, 3-[{[4-({cyclohexyl[2-(methoxymethyl)-5-(6-methoxypyridin-3-yl)furan-3-yl]methyl}amino)phenyl]carbonyl}(methyl)amino]propanoic acid] | 8.6 % of control
COc1ccc(-c2cc(C(CC(C)C)Nc3ccc(C(=O)N(C)CCC(=O)O)cc3)c(C)o2)cn1 (centres unmarked) [Example 149, 3-[{[4-({1-[5-(6-methoxypyridin-3-yl)-2-methylfuran-3-yl]-3-methylbutyl}amino)phenyl]carbonyl}(methyl)amino]propanoic acid] | 6.8 % of control
